# Test system: 898857-211-R-J1-PDC complex spheroids, growth % test/control
# Assay: Anticancer human tumor 898857-211-R-J1-PDC patient-derived melanoma cell line growth inhibition [RAS]
# Conditions: for IC50: curve of first compound; for viability, T/C: stronger effect = lower value
# Description: RAS pathway inhibitors in Combinations in Complex Spheroids
# A high-throughput screen of multi-cell type tumor spheroids was designed to identify active combinations of RAS pathway inhibitors and targeted small molecules. Complex spheroids include a stromal component modeled by human endothelial cells (HUVEC) and fibroblasts modeled by human mesenchymal stem cells (MSCs). The concentration ranges selected for each drug and investigational agent were based upon clinically achievable concentrations if the clinical Cmax of the agent was known.
# Compounds. The drugs and investigational agents: abemaciclib (NSC768073), cobimetinib (NSC768068), divarasib (GDC6063, NSC841802), docetaxel (NSC628503), GDC-1971 (RLY-1971, NSC841576), gemcitabine (NSC613327), inavolisib (NSC800729), ipatasertib (NSC767898), KB-0742 (NSC834161), MRTX-1133 (NSC836407), osimertinib (NSC779217), RMC-4630 (NSC839698), RMC-6236 (NSC851965), RMC-6291 (NSC852671), Ro-3306 (NSC812927), sapanisertib (NSC764658), SN-38 (NSC673596), staurosporine (NSC755774), SY5609 (NSC837396), and tovorafenib (DAY101, NSC766906), were obtained from the National Cancer Institute (NCI) Developmental Therapeutics Program Chemical Repository. The FDA-approved anticancer drug set is available from the NCI Developmental Therapeutics Program. […] The stock solutions were prepared in dimethyl sulfoxide (DMSO, Sigma-Aldrich, St. Louis, MO, cat. D2650) at 800-fold the tested concentration and stored at -70 degrees C prior to their use. All drugs and investigational agents were tested over a range starting from a high concentration at or near the clinical Cmax and decreasing in half-log increments. If the clinical Cmax for an agent had not been determined, the highest concentration tested was 10 microM.
# Cell Culture. All cells were maintained in an incubator at 37 degrees C and 5% CO2 with 95% humidity. The PDC lines were cultured according to standard operating procedures established by the NCI PDMR. All PDCs were thawed and cultured in Matrigel-coated flasks prepared with a working solution of 1X Ham's F-12 nutrient mix, without supplementation (Invitrogen, Waltham, MA, cat. 11765054), 100 U/mL penicillin-streptomycin (Invitrogen, cat. 15140122), and 2.5% Matrigel (Corning Inc., Corning, NY, cat. 354248) for the first three passages. The 362531-283-R-J2-PDC and 782815-120-R-J1-PDC lines were cultured in 6C/Colon 1B media, which includes advanced DMEM/F-12 (Thermo Fisher Scientific, cat. 12634028), 10 mM HEPES (Thermo Fisher Scientific, cat. 15630080), 1X GlutaMAX supplement (Thermo Fisher Scientific, cat. 35050061), 0.1 mg/mL primocin (InvivoGen, San Diego, CA, cat. ant-pm-2), 10% defined fetal bovine serum, heat inactivated (HyClone Laboratories Inc., Logan, UT, cat. SH30070.03HI), 50% L-WRN conditioned media (ATCC, cat. CRL-3276), 1.25 mM N-Acetyl-L-cysteine (Sigma-Aldrich, cat. A9165), 10 mM nicotinamide (Sigma-Aldrich, cat. N0636), 1X B-27 supplement (Thermo Fisher Scientific, cat. 17504044), 1X N-2 supplement (Thermo Fisher Scientific, cat. 17502048), 50 ng/mL human EGF (Thermo Fisher Scientific, cat. PHG0311), and 10 microM Y-27632 dihydrochloride (Tocris Bioscience, cat. 1254). The K12877-001-R-J1-PDC line was cultured in 6I media, which includes all 6C/Colon 1B media plus 10 ng/mL human FGF-10 (PeproTech, cat. 100-26), 1 ng/mL human FGF-2 (PeproTech, cat. 100-18B), 1 µM prostaglandin E2 (Tocris Bioscience, cat. 2296), […] hydrocortisone (Sigma-Aldrich, cat. H4001), and […] bovine insulin (Sigma-Aldrich, cat. I6634). The K86415-001-R-J1-PDC line was cultured in 6D media, which includes all 6C/Colon 1B media components minus the L-WRN conditioned media. The 485176-168-R4-J1-PDC was cultured in PANC media, which includes all 6C/Colon 1B media plus 100 ng/mL human FGF-10 (PeproTech, cat. 100-26), 500 nM SB-431542 (Selleckchem, cat. S1067), and 10 nM gastrin (Tocris Bioscience, cat. 3006). […]
# [1] = second compound 0.000949 µM, first compound 0.0316 µM
# [2] = second compound 0.000949 µM, first compound 0.1 µM
# [3] = second compound 0.003 µM, first compound 0.0316 µM
# [4] = second compound 0.003 µM, first compound 0.1 µM
# [5] = second compound 0.00949 µM, first compound 0.0316 µM
# [6] = second compound 0.00949 µM, first compound 0.1 µM
# [7] = second compound 0.03 µM, first compound 0.0316 µM
# [8] = second compound 0.03 µM, first compound 0.1 µM
# [9] = second compound 0.0949 µM, first compound 0.0316 µM
# [10] = second compound 0.0949 µM, first compound 0.1 µM
# [11] = second compound 0.3 µM, first compound 0.0316 µM
# [12] = second compound 0.3 µM, first compound 0.1 µM
# 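Further: spheroids exposed to compound for seven days before readout.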
# 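Wherever viability, T/C is given: 100% = DMSO vehicle control wells.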
smiles,measurement,setting,value
CC(C)n1nc(-c2ccc3oc(N)nc3c2)c2c(N)ncnc21 + CCn1c(-c2cc(N3CCN(C)CC3)cnc2C(C)OC)c2c3cc(ccc31)-c1csc(n1)CC(NC(=O)C1CC1C)C(=O)N1CCCC(N1)C(=O)OCC(C)(C)C2,IC50,second compound 0.000949 µM,20.5 nM
same,IC50,second compound 0.003 µM,19.3 nM
same,IC50,second compound 0.00949 µM,17.3 nM
same,IC50,second compound 0.03 µM,13.7 nM
same,IC50,second compound 0.0949 µM,18.2 nM
same,IC50,second compound 0.3 µM,14.9 nM
same,"viability, T/C","second compound 0.000949 µM, first compound 0.000316 µM",98%
same,"viability, T/C","second compound 0.000949 µM, first compound 0.001 µM",82.6%
same,"viability, T/C","second compound 0.000949 µM, first compound 0.00316 µM",89.9%
same,"viability, T/C","second compound 0.000949 µM, first compound 0.01 µM",63.3%
same,"viability, T/C",[1],41.1%
same,"viability, T/C",[2],16.7%
same,"viability, T/C","second compound 0.003 µM, first compound 0.000316 µM",100%
same,"viability, T/C","second compound 0.003 µM, first compound 0.001 µM",92.8%
same,"viability, T/C","second compound 0.003 µM, first compound 0.00316 µM",86.5%
same,"viability, T/C","second compound 0.003 µM, first compound 0.01 µM",69.3%
same,"viability, T/C",[3],35.6%
same,"viability, T/C",[4],14.1%
same,"viability, T/C","second compound 0.00949 µM, first compound 0.000316 µM",92%
same,"viability, T/C","second compound 0.00949 µM, first compound 0.001 µM",88.3%
same,"viability, T/C","second compound 0.00949 µM, first compound 0.00316 µM",80.2%
same,"viability, T/C","second compound 0.00949 µM, first compound 0.01 µM",63.5%
same,"viability, T/C",[5],35.4%
same,"viability, T/C",[6],15.7%
same,"viability, T/C","second compound 0.03 µM, first compound 0.000316 µM",97.4%
same,"viability, T/C","second compound 0.03 µM, first compound 0.001 µM",91.8%
same,"viability, T/C","second compound 0.03 µM, first compound 0.00316 µM",69.5%
same,"viability, T/C","second compound 0.03 µM, first compound 0.01 µM",57%
same,"viability, T/C",[7],35.2%
same,"viability, T/C",[8],12.4%
same,"viability, T/C","second compound 0.0949 µM, first compound 0.000316 µM",109%
same,"viability, T/C","second compound 0.0949 µM, first compound 0.001 µM",108%
same,"viability, T/C","second compound 0.0949 µM, first compound 0.00316 µM",79.5%
same,"viability, T/C","second compound 0.0949 µM, first compound 0.01 µM",64.6%
same,"viability, T/C",[9],38.5%
same,"viability, T/C",[10],15.1%
same,"viability, T/C","second compound 0.3 µM, first compound 0.000316 µM",103%
same,"viability, T/C","second compound 0.3 µM, first compound 0.001 µM",100%
same,"viability, T/C","second compound 0.3 µM, first compound 0.00316 µM",69.2%
same,"viability, T/C","second compound 0.3 µM, first compound 0.01 µM",56.2%
same,"viability, T/C",[11],40.2%
same,"viability, T/C",[12],12.7%
CC1(O)CCCC1n1c(=O)c(C(F)F)cc2cnc(NC3CCN(S(C)(=O)=O)CC3)nc21 (centres undefined) + CCn1c(-c2cc(N3CCN(C)CC3)cnc2C(C)OC)c2c3cc(ccc31)-c1csc(n1)CC(NC(=O)C1CC1C)C(=O)N1CCCC(N1)C(=O)OCC(C)(C)C2,IC50,second compound 0.000949 µM,121 nM
same,IC50,second compound 0.003 µM,168 nM
same,IC50,second compound 0.00949 µM,138 nM
same,IC50,second compound 0.03 µM,124 nM
same,IC50,second compound 0.0949 µM,188 nM
same,IC50,second compound 0.3 µM,144 nM
same,"viability, T/C",[1],92.9%
same,"viability, T/C",[2],49.7%
same,"viability, T/C","second compound 0.000949 µM, first compound 0.316 µM",35.1%
same,"viability, T/C","second compound 0.000949 µM, first compound 1 µM",38.6%
same,"viability, T/C","second compound 0.000949 µM, first compound 3.16 µM",36.2%
same,"viability, T/C","second compound 0.000949 µM, first compound 10 µM",15.2%
same,"viability, T/C",[3],90.7%
same,"viability, T/C",[4],58.5%
same,"viability, T/C","second compound 0.003 µM, first compound 0.316 µM",33.5%
same,"viability, T/C","second compound 0.003 µM, first compound 1 µM",39.4%
same,"viability, T/C","second compound 0.003 µM, first compound 3.16 µM",35.1%
same,"viability, T/C","second compound 0.003 µM, first compound 10 µM",17.2%
same,"viability, T/C",[5],78.2%
same,"viability, T/C",[6],51%
same,"viability, T/C","second compound 0.00949 µM, first compound 0.316 µM",37.6%
same,"viability, T/C","second compound 0.00949 µM, first compound 1 µM",34.7%
same,"viability, T/C","second compound 0.00949 µM, first compound 3.16 µM",37.5%
same,"viability, T/C","second compound 0.00949 µM, first compound 10 µM",15.4%
same,"viability, T/C",[7],100%
same,"viability, T/C",[8],49.5%
same,"viability, T/C","second compound 0.03 µM, first compound 0.316 µM",38.4%
same,"viability, T/C","second compound 0.03 µM, first compound 1 µM",36.5%
same,"viability, T/C","second compound 0.03 µM, first compound 3.16 µM",36.7%
same,"viability, T/C","second compound 0.03 µM, first compound 10 µM",16.6%
same,"viability, T/C",[9],96%
same,"viability, T/C",[10],53.6%
same,"viability, T/C","second compound 0.0949 µM, first compound 0.316 µM",43.2%
same,"viability, T/C","second compound 0.0949 µM, first compound 1 µM",38.7%
same,"viability, T/C","second compound 0.0949 µM, first compound 3.16 µM",37.2%
same,"viability, T/C","second compound 0.0949 µM, first compound 10 µM",16.9%
same,"viability, T/C",[11],107%
same,"viability, T/C",[12],55.4%
same,"viability, T/C","second compound 0.3 µM, first compound 0.316 µM",33.6%
same,"viability, T/C","second compound 0.3 µM, first compound 1 µM",36.3%
same,"viability, T/C","second compound 0.3 µM, first compound 3.16 µM",34.2%
same,"viability, T/C","second compound 0.3 µM, first compound 10 µM",16%

# — PubChem BioAssay AID2060882 (Molecular Pharmacology Branch, DTP, NCI, 2025)
